Assay results as given in ChEMBL document CHEMBL2331144, “Synthesis and anticancer activity of analogues of phenstatin, with a phenothiazine A-ring, as a new class of microtubule-targeting agents” (Bioorg Med Chem Lett, 2013).

Legend:
[1] = Inhibition of sheep brain tubulin polymerization using DAPI by fluorimetry; set-up: species or system Ovis aries
Ovis aries = species on record: Ovis aries; experiment: Inhibition of sheep brain tubulin polymerization at 100 uM using DAPI by fluorimetry
MDA-MB-231 = experiment: Growth inhibition of human MDA-MB-231 cells after 48 hrs by sulforhodamine B assay; assay type: functional; details: MDA-MB-231, 48 h
SW-620 = experiment: Growth inhibition of human SW620 cells after 48 hrs by sulforhodamine B assay; assay type: functional; details: SW-620, 48 h
HL-60(TB) = experiment: Growth inhibition of human HL-60(TB) cells after 48 hrs by sulforhodamine B assay; assay type: functional; details: HL-60, 48 h
RPMI-8226 = experiment: Growth inhibition of human RPMI8226 cells after 48 hrs by sulforhodamine B assay; assay type: functional; details: RPMI-8226, 48 h
K562 = experiment: Growth inhibition of human K562 cells after 48 hrs by sulforhodamine B assay; assay type: functional; details: K562, 48 h
MCF7 = experiment: Growth inhibition of human MCF7 cells after 48 hrs by sulforhodamine B assay; assay type: functional; details: MCF7, 48 h
HOP-62 = experiment: Growth inhibition of human HOP62 cells after 48 hrs by sulforhodamine B assay; assay type: functional; details: HOP-62, 48 h
KM12 = experiment: Growth inhibition of human KM12 cells after 48 hrs by sulforhodamine B assay; assay type: functional; details: KM12, 48 h
[2] = Growth inhibition of human NCI-ADR-RES cells after 48 hrs by sulforhodamine B assay; assay type: functional
ACHN = experiment: Growth inhibition of human ACHN cells after 48 hrs by sulforhodamine B assay; assay type: functional
BT-549 = experiment: Growth inhibition of human BT549 cells after 48 hrs by sulforhodamine B assay; assay type: functional; details: BT-549, 48 h
OVCAR-8 = experiment: Growth inhibition of human OVCAR8 cells after 48 hrs by sulforhodamine B assay; assay type: functional; details: OVCAR-8, 48 h
CAKI-1 = experiment: Growth inhibition of human CAKI-1 cells after 48 hrs by sulforhodamine B assay; assay type: functional; details: CAKI-1, 48 h
NCI-H460 = experiment: Growth inhibition of human NCI-H460 cells after 48 hrs by sulforhodamine B assay; assay type: functional; details: NCI-H460, 48 h
DU-145 = experiment: Growth inhibition of human DU145 cells after 48 hrs by sulforhodamine B assay; assay type: functional; details: DU-145, 48 h
HT-29 = experiment: Growth inhibition of human HT-29 cells after 48 hrs by sulforhodamine B assay; assay type: functional; details: HT-29, 48 h
SNB-75 = experiment: Growth inhibition of human SNB75 cells after 48 hrs by sulforhodamine B assay; assay type: functional; details: SNB-75, 48 h
OVCAR-4 = experiment: Growth inhibition of human OVCAR4 cells after 48 hrs by sulforhodamine B assay; assay type: functional; details: OVCAR-4, 48 h
SF-268 = experiment: Growth inhibition of human SF268 cells after 48 hrs by sulforhodamine B assay; assay type: functional; details: SF-268, 48 h
UACC-62 = experiment: Growth inhibition of human UACC62 cells after 48 hrs by sulforhodamine B assay; assay type: functional; details: UACC-62, 48 h
CCRF-CEM = experiment: Growth inhibition of human CCRF-CEM cells after 48 hrs by sulforhodamine B assay; assay type: functional
A549 = experiment: Growth inhibition of human A549/ATCC cells after 48 hrs by sulforhodamine B assay; assay type: functional; details: A549, 48 h
TK-10 = experiment: Growth inhibition of human TK10 cells after 48 hrs by sulforhodamine B assay; assay type: functional; details: TK-10, 48 h
UACC-257 = experiment: Growth inhibition of human UACC257 cells after 48 hrs by sulforhodamine B assay; assay type: functional; details: UACC-257, 48 h
PC-3 = experiment: Growth inhibition of human PC3 cells after 48 hrs by sulforhodamine B assay; assay type: functional; details: PC-3, 48 h
SR = experiment: Growth inhibition of human SR cells after 48 hrs by sulforhodamine B assay; assay type: functional
SK-MEL-5 = experiment: Growth inhibition of human SK-MEL-5 cells after 48 hrs by sulforhodamine B assay; assay type: functional; details: SK-MEL-5, 48 h
SK-MEL-28 = experiment: Growth inhibition of human SK-MEL-28 cells after 48 hrs by sulforhodamine B assay; assay type: functional; details: SK-MEL-28, 48 h
MDA-MB-435 = experiment: Growth inhibition of human MDA-MB-435 cells after 48 hrs by sulforhodamine B assay; assay type: functional; details: MDA-MB-435, 48 h
SF-539 = experiment: Growth inhibition of human SF539 cells after 48 hrs by sulforhodamine B assay; assay type: functional; details: SF-539, 48 h
OVCAR-3 = experiment: Growth inhibition of human OVCAR3 cells after 48 hrs by sulforhodamine B assay; assay type: functional; details: OVCAR-3, 48 h
SF-295 = experiment: Growth inhibition of human SF295 cells after 48 hrs by sulforhodamine B assay; assay type: functional; details: SF-295, 48 h
HCT-15 = experiment: Growth inhibition of human HCT15 cells after 48 hrs by sulforhodamine B assay; assay type: functional; details: HCT-15, 48 h
T47D = experiment: Growth inhibition of human T47D cells after 48 hrs by sulforhodamine B assay; assay type: functional
NCI-H23 = experiment: Growth inhibition of human NCI-H23 cells after 48 hrs by sulforhodamine B assay; assay type: functional; details: NCI-H23, 48 h
OVCAR-5 = experiment: Growth inhibition of human OVCAR5 cells after 48 hrs by sulforhodamine B assay; assay type: functional; details: OVCAR-5, 48 h
MDA-MB-468 = experiment: Growth inhibition of human MDA-MB-468 cells after 48 hrs by sulforhodamine B assay; assay type: functional; details: MDA-MB-468, 48 h
LOX IMVI = experiment: Growth inhibition of human LOXIMVI cells after 48 hrs by sulforhodamine B assay; assay type: functional
MOLT-4 = experiment: Growth inhibition of human MOLT4 cells after 48 hrs by sulforhodamine B assay; assay type: functional; details: MOLT-4, 48 h
IGROV-1 = experiment: Growth inhibition of human IGROV1 cells after 48 hrs by sulforhodamine B assay; assay type: functional; details: IGROV-1, 48 h
HCT-116 = experiment: Growth inhibition of human HCT116 cells after 48 hrs by sulforhodamine B assay; assay type: functional; details: HCT-116, 48 h
UO-31 = experiment: Growth inhibition of human UO31 cells after 48 hrs by sulforhodamine B assay; assay type: functional; details: UO-31, 48 h
[3] = Growth inhibition of human Hs 578T cells after 48 hrs by sulforhodamine B assay; assay type: functional
RXF 393 = experiment: Growth inhibition of human RXF393 cells after 48 hrs by sulforhodamine B assay; assay type: functional; details: RXF 393, 48 h
SN12C = experiment: Growth inhibition of human SN12C cells after 48 hrs by sulforhodamine B assay; assay type: functional
COLO 205 = experiment: Growth inhibition of human COLO205 cells after 48 hrs by sulforhodamine B assay; assay type: functional; details: COLO 205, 48 h
SK-MEL-2 = experiment: Growth inhibition of human SK-MEL-2 cells after 48 hrs by sulforhodamine B assay; assay type: functional; details: SK-MEL-2, 48 h
SK-OV-3 = experiment: Growth inhibition of human SKOV3 cells after 48 hrs by sulforhodamine B assay; assay type: functional; details: SK-OV-3, 48 h
Malme-3M = experiment: Growth inhibition of human MALME-3M cells after 48 hrs by sulforhodamine B assay; assay type: functional
786-0 = experiment: Growth inhibition of human 786-0 cells after 48 hrs by sulforhodamine B assay; assay type: functional; details: 786-0, 48 h
NCI-H522 = experiment: Growth inhibition of human NCI-H522 cells after 48 hrs by sulforhodamine B assay; assay type: functional; details: NCI-H522, 48 h
A498 = experiment: Growth inhibition of human A498 cells after 48 hrs by sulforhodamine B assay; assay type: functional; details: A498, 48 h
[4] = Growth inhibition of human HCC2998 cells after 48 hrs by sulforhodamine B assay; assay type: functional; details: HCC 2998, 48 h
M14 = experiment: Growth inhibition of human M14 cells after 48 hrs by sulforhodamine B assay; assay type: functional; details: M14, 48 h

C=C(c1ccc(OC)c(O)c1)c1cc(OC)c(OC)c(OC)c1 showed an IC50 [1] of 1500 nM.
Work on COc1cc([C@@H]2c3cc4c(cc3C[C@H]3COC(=O)[C@@H]32)OCO4)cc(OC)c1OC [DESOXYPODOPHYLLOTOXIN] yielded an IC50 [1] of 1760 nM and an inhibition (Ovis aries) of 100%.
Compound CN(C)Cc1cn(C(=O)N2c3ccccc3Sc3ccccc32)c2ccccc12 has a GI50 (MDA-MB-231) of 1170 nM, a GI50 (SW-620) of 1840 nM and a GI50 (HL-60(TB)) of 2220 nM. It also gave a GI50 (RPMI-8226) of 1840 nM, a GI50 (K562) of 1950 nM and a GI50 (MCF7) of 1790 nM. It also gave a GI50 (HOP-62) of 1680 nM, a GI50 (KM12) of 1890 nM and a GI50 [2] of 2530 nM. It also gave a GI50 (ACHN) of 1500 nM, a GI50 (BT-549) of 2960 nM and a GI50 (OVCAR-8) of 1780 nM. For the same compound, the GI50 (CAKI-1) was 1530 nM, the GI50 (NCI-H460) was 1810 nM and the GI50 (DU-145) was 1980 nM. It also gave a GI50 (HT-29) of 1790 nM, a GI50 (SNB-75) of 1650 nM and a GI50 (OVCAR-4) of 2040 nM. The GI50 (SF-268) was 2920 nM, the GI50 (UACC-62) was 1720 nM and the GI50 (CCRF-CEM) was 2000 nM. It also gave a GI50 (A549) of 1680 nM, a GI50 (TK-10) of 1730 nM and a GI50 (UACC-257) of 1600 nM. It also gave a GI50 (PC-3) of 1620 nM, a GI50 (SR) of 1760 nM and a GI50 (SK-MEL-5) of 1600 nM. It also gave a GI50 (SK-MEL-28) of 1720 nM, a GI50 (MDA-MB-435) of 1740 nM and a GI50 (SF-539) of 1640 nM. For the same compound, the GI50 (OVCAR-3) was 1950 nM, the GI50 (SF-295) was 1750 nM and the GI50 (HCT-15) was 1700 nM. For the same compound, the GI50 (T47D) was 2040 nM, the GI50 (NCI-H23) was 4850 nM and the inhibition (Ovis aries) was 9%. The GI50 (OVCAR-5) was 1500 nM, the GI50 (MDA-MB-468) was 1160 nM and the GI50 (LOX IMVI) was 1800 nM. The GI50 (MOLT-4) was 2130 nM, the GI50 (IGROV-1) was 1730 nM and the GI50 (HCT-116) was 1740 nM. The GI50 (UO-31) was 1610 nM, the GI50 [3] was 2080 nM and the GI50 (RXF 393) was 1210 nM. For the same compound, the GI50 (SN12C) was 1980 nM, the GI50 (COLO 205) was 1850 nM and the GI50 (SK-MEL-2) was 2230 nM. The GI50 (SK-OV-3) was 2020 nM, the GI50 (Malme-3M) was 1990 nM and the GI50 (786-0) was 1750 nM. It also gave a GI50 (NCI-H522) of 1900 nM, a GI50 (A498) of 1240 nM and a GI50 [4] of 1850 nM. The GI50 (M14) was 1970 nM.
